7 molecules from patent publication US9963464B2, “Macrocyclic compounds” (Bayer Pharma Aktiengesellschaft, priority 2014, dated 2018) can be followed below.

In one assay the test system is HeLa cells. Description: Proliferation assay HeLa. Type of assay: cell-based, human. To be noted: 4 days, crystal violet, read-out: Inhibition of HeLa cell proliferation IC50. How it is done:
Cultivated tumour cells (HeLa, human cervical tumour cells, ATCC CCL-2; NCI-H460, human non-small cell lung carcinoma cells, ATCC HTB-177; A2780, human ovarian carcinoma cells, ECACC #93112519; DU 145, hormone-independent human prostate carcinoma cells, ATCC HTB-81; HeLa-MaTu-ADR, multidrug-resistant human cervical carcinoma cells, EPO-GmbH Berlin; Caco-2, human colorectal carcinoma cells, ATCC HTB-37; B16F10, mouse melanoma cells, ATCC CRL-6475) were plated at a density of 5,000 cells/well (DU145, HeLa-MaTu-ADR), 3,000 cells/well (NCI-H460, HeLa), 2,500 cells/well (A2780), 1,500 cells/well (Caco-2), or 1,000 cells/well (B16F10) in a 96-well multititer plate in 200 μL of their respective growth medium supplemented 10% fetal calf serum. After 24 hours, the cells of one plate (zero-point plate) were stained with crystal violet (see below), while the medium of the other plates was replaced by fresh culture medium (200 μl), to which the test substances were added in various concentrations (0 μM, as well as in the range of 0.001-10 μM). The cells were incubated for 4 days in the presence of test substances. Cell proliferation was determined by staining the cells with crystal violet: the cells were fixed by adding 20 μl/measuring point of an 11% glutaric aldehyde solution for 15 minutes at room temperature. After three washing cycles of the fixed cells with water, the plates were dried at room temperature. The cells were stained by adding 100 μl/measuring point of a 0.1% crystal violet solution (pH 3.0). After three washing cycles of the stained cells with water, the plates were dried at room temperature. The dye was dissolved by adding 100 μl/measuring point of a 10% acetic acid solution. The extinction was determined by photometry at a wavelength of 595 nm. The change of cell number, in percent, was calculated by normalization of the measured values to the extinction values of the zero-point plate (=0%) and the extinction of the untreated (0 μm) cells (=100%). The IC50 values (inhibitory concentration at 50% of maximal effect) were determined by means of a 4 parameter fit. Non-adherent MOLM-13 human acute myeloid leukemia cells (DSMZ ACC 554) were seeded at a density of 5,000 cells/well in a 96-well multititer plate in 100 μL of growth medium supplemented 10% fetal calf serum. After 24 hours, cell viability of one plate (zero-point plate) was determined with the Cell Titre-Glo Luminescent Cell Viability Assay (Promega), while 50 μL of test compound containing medium was added to the wells of the other plates (final concentrations in the range of 0.001-1 μM and DMSO controls). Cell viability was assessed after 72-hour exposure with the Cell Titre-Glo Luminescent Cell Viability Assay (Promega). IC50 values (inhibitory concentration at 50% of maximal effect) were determined by means of a 4 parameter fit on measurement data which were normalized to vehicle (DMSO) treated cells (=100%) and measurement readings taken immediately before compound exposure (=0%).

For another assay, the target named is T1, CDK9/CycT1 (Homo sapiens, UniProt P50750).
T1 construct: Recombinant full-length His-tagged human CDK9 and CycT1; His; purchased Invitrogen PV4131; host or cells: insect cells
T1 sequence (P50750 whole entry): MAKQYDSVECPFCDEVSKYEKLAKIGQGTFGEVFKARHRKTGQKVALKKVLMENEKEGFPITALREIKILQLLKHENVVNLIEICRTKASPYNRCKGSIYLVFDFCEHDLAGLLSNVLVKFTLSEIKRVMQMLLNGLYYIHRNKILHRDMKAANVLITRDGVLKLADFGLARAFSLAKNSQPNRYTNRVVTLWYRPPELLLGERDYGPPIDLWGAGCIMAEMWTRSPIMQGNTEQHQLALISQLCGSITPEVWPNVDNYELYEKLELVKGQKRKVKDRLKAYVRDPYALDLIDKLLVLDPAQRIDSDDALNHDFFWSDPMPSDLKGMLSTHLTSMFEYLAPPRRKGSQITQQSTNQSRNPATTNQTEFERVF
T1 sequence (O60563 whole entry partner): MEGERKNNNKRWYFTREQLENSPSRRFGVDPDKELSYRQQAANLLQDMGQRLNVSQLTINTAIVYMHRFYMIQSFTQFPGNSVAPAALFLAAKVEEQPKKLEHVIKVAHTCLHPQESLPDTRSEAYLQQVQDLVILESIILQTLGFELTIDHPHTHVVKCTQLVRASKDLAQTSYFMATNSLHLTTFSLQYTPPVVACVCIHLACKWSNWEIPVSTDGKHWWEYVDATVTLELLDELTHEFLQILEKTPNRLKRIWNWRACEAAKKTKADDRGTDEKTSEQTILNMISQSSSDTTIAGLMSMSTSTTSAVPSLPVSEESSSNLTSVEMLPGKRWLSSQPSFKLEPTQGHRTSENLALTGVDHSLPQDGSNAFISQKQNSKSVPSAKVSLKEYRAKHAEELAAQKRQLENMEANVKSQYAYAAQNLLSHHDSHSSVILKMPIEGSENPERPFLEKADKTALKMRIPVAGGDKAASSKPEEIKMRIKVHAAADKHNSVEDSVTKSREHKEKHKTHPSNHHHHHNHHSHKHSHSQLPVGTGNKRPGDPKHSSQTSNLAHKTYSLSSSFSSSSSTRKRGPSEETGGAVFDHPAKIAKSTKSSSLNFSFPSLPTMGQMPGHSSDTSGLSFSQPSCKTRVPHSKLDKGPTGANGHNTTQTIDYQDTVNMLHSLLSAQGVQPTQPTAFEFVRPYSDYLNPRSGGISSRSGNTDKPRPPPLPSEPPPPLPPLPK
Description: CDK9/CycT1 kinase assay (TR-FRET, Method 1a). It is filed as biochemical. To be noted: for IC50: Method 1a, 10 μM ATP; for Selectivity CDK9 over CDK2: IC50 (CDK2)/IC50 (CDK9): Methods 1a and 2a, minimal values where CDK9 IC50 is at the assay limit. The text has this: 1a. CDK9/CycT1 Kinase Assay:
CDK9/CycT1-inhibitory activity of compounds of the present invention was quantified employing the CDK9/CycT1 TR-FRET assay as described in the following paragraphs:
Recombinant full-length His-tagged human CDK9 and CycT1, expressed in insect cells and purified by Ni-NTA affinity chromatography, were purchased from Invitrogen (Cat. No PV4131). As substrate for the kinase reaction biotinylated peptide biotin-Ttds-YISPLKSPYKISEG (C-terminus in amid form) was used which can be purchased e.g. from the company JERINI Peptide Technologies (Berlin, Germany). For the assay 50 nl of a 100 fold concentrated solution of the test compound in DMSO was pipetted into a black low volume 384 well microtiter plate (Greiner Bio-One, Frickenhausen, Germany), 2 μl of a solution of CDK9/CycT1 in aqueous assay buffer [50 mM Tris/HCl pH 8.0, 10 mM MgCl2, 1.0 mM dithiothreitol, 0.1 mM sodium ortho-vanadate, 0.01% (v/v) Nonidet-P40 (Sigma)] were added and the mixture was incubated for 15 min at 22° C. to allow pre-binding of the test compounds to the enzyme before the start of the kinase reaction. […] The concentration of CDK9/CycT1 was adjusted depending of the activity of the enzyme lot and was chosen appropriate to have the assay in the linear range, typical concentrations were in the range of 1 μg/mL. The reaction was stopped by the addition of 5 μl of a solution of TR-FRET detection reagents (0.2 μM streptavidine-XL665 [Cisbio Bioassays, Codolet, France] and 1 nM anti-RB(pSer807/pSer811)-antibody from BD Pharmingen [#558389] and 1.2 nM LANCE EU-W1024 labeled anti-mouse IgG antibody [Perkin-Elmer, product no. AD0077]) in an aqueous EDTA-solution (100 mM EDTA, 0.2% (w/v) bovine serum albumin in 100 mM HEPES pH 7.5).
The resulting mixture was incubated 1 h at 22° C. to allow the formation of complex between the phosphorylated biotinylated peptide and the detection reagents. Subsequently the amount of phosphorylated substrate was evaluated by measurement of the resonance energy transfer from the Eu-chelate to the streptavidine-XL. Therefore, the fluorescence emissions at 620 nm and 665 nm after excitation at 350 nm was measured in a HTRF reader, e.g. a Rubystar (BMG Labtechnologies, Offenburg, Germany) or a Viewlux (Perkin-Elmer). The ratio of the emissions at 665 nm and at […] was taken as the measure for the amount of phosphorylated substrate. The data were normalised (enzyme reaction without inhibitor=0% inhibition, all other assay components but no enzyme=100% inhibition).
Background: TR-FRET usually uses a lanthanide donor and a delayed reading to cut background.

Where two headings read alike, the source gives them in different places.

`CCOC(=O)N=S(C)(=O)Cc1cc2nc(c1)OCCCOc1cc(F)ccc1-c1cc(ncc1F)N2` (racemic) [Example 20, (rac)-ethyl [{[15,19-difluoro-3,4-dihydro-2H,11H-10,6-(azeno)-12,16-(metheno)-1,5,11,13-benzodioxadiazacyclooctadecin-8-yl]methyl}(methyl)oxido-λ^6-sulfanylidene]carbamate]: the IC50 in the assay with HeLa cells (Homo sapiens, HeLa, 96 h) was determined as 26 nM. At CDK9/CycT1, the IC50 is 5.3 nM and the “Selectivity CDK9 over CDK2: IC50 (CDK2)/IC50 (CDK9)” value (“Selectivity CDK9 over CDK2: IC50” below) amounted to 2.2.
In the case of `CS(=O)(Cc1cc2nc(c1)OCCCOc1cc(F)ccc1-c1cc(ncc1F)N2)=NC(=O)OCCCl` (racemic) [Example 21, (rac)-2-chloroethyl [{[15,19-difluoro-3,4-dihydro-2H,11H-10,6-(azeno)-12,16-(metheno)-1,5,11,13-benzodioxadiazacyclooctadecin-8-yl]methyl}(methyl)oxido-λ^6-sulfanylidene]carbamate], the IC50 with HeLa cells (Homo sapiens, HeLa, 96 h) was 11 nM. Besides, at CDK9/CycT1, the IC50 is 7.3 nM and the “Selectivity CDK9 over CDK2: IC50” value is listed as 1.6.
As for `CS(=O)(=O)N=S(C)(=O)Cc1cc2nc(c1)OCCCOc1cc(F)ccc1-c1cc(ncc1F)N2` (racemic) [Example 22, (rac)-N-[{[15,19-difluoro-3,4-dihydro-2H,11H-10,6-(azeno)-12,16-(metheno)-1,5,11,13-benzodioxadiazacyclooctadecin-8-yl]methyl}(methyl)oxido-λ^6-sulfanylidene]methanesulfonamide], the IC50 in the assay on HeLa cells (Homo sapiens, HeLa, 96 h) turned out to be 17 nM. In addition, at CDK9/CycT1, the IC50 came out at 5.3 nM and the “Selectivity CDK9 over CDK2: IC50” value came to 3.7.
For `CS(=O)(Cc1cc2nc(c1)OCCCOc1cc(F)ccc1-c1cc(ncc1F)N2)=NS(=O)(=O)CCN` (racemic) [Example 23, (rac)-2-amino-N-[{[15,19-difluoro-3,4-dihydro-2H,11H-10,6-(azeno)-12,16-(metheno)-1,5,11,13-benzodioxadiazacyclooctadecin-8-yl]methyl}(methyl)oxido-λ^6-sulfanylidene]ethanesulfonamide], the IC50 in the assay on HeLa cells (Homo sapiens, HeLa, 96 h) was 57 nM. In addition, at CDK9/CycT1, the IC50 is 8.7 nM and the “Selectivity CDK9 over CDK2: IC50” value was found to be 3.5.
Regarding `CS(=O)(Cc1cc2nc(c1)OCCCOc1cc(F)ccc1-c1cc(ncc1F)N2)=NS(=O)(=O)CCN.O=C(O)C(F)(F)F` (racemic) [Example 24, (rac)-2-{[{[15,19-difluoro-3,4-dihydro-2H,11H-10,6-(azeno)-12,16-(metheno)-1,5,11,13-benzodioxadiazacyclooctadecin-8-yl]methyl}(methyl)oxido-λ^6-sulfanylidene]sulfamoyl}ethanaminium trifluoroacetate], in the assay on HeLa cells (trifluoroacetate), the IC50 was found to be 82 nM. Moreover, at CDK9/CycT1, the IC50 turned out to be 2.2 nM and the “Selectivity CDK9 over CDK2: IC50” value stood at 6.2.
Regarding `CS(=O)(Cc1cc2nc(c1)OCCCOc1cc(F)ccc1-c1cc(ncc1F)N2)=NC(=O)OCCN` (racemic) [Example 25, (rac)-2-aminoethyl [{[15,19-difluoro-3,4-dihydro-2H,11H-10,6-(azeno)-12,16-(metheno)-1,5,11,13-benzodioxadiazacyclooctadecin-8-yl]methyl}(methyl)oxido-λ^6-sulfanylidene]carbamate], the IC50 in the assay on HeLa cells (Homo sapiens, HeLa, 96 h) stood at 14 nM; against CDK9/CycT1, 4.3 nM. For the same molecule, the “Selectivity CDK9 over CDK2: IC50” value on CDK9/CycT1 amounted to 1.3.
With `CS(=N)(=O)Cc1cc2nc(c1)OCCCOc1cc(F)ccc1-c1cc(ncc1F)N2` (single isomer, unassigned; enantiomer 1) [Example 6, 15,19-Difluoro-8-[(S-methylsulfonimidoyl)methyl]-3,4-dihydro-2H,11H-10,6-(azeno)-12,16-(metheno)-1,5,11,13-benzodioxadiazacyclooctadecine; Enantiomer 1], the IC50 in the assay on HeLa cells (Homo sapiens, HeLa, 96 h) stood at 31 nM. In addition, at CDK9/CycT1, the IC50 was found to be 3 nM and the “Selectivity CDK9 over CDK2: IC50” value is 0.9.
